According to publication PMC5218480 (PLoS ONE, 2017):

Tested on: MV-4-11 cells
Test: Gene expression microarray analysis (Affymetrix PrimeView) and GSEA
Assay type: cell-based, human
Set-up: RFU PODN (11730768_x_at) / Fold change /veh PODN (11730768_x_at) / RFU LINC00158 (11744669_a_at) / Fold change /veh LINC00158 (11744669_a_at) / RFU DUSP10 (11751237_a_at) / Fold change /veh DUSP10 (11751237_a_at) / RFU ID3 (11757404_x_at) / Fold change /veh ID3 (11757404_x_at) / RFU PLEKHG5 (11737974_s_at) / Fold change /veh PLEKHG5 (11737974_s_at) / RFU LRRC4B (11730491_at) / Fold change /veh LRRC4B (11730491_at) / RFU GIMAP4 (11747438_a_at) / Fold change /veh GIMAP4 (11747438_a_at) / RFU KRT8 (11758183_x_at) / Fold change /veh KRT8 (11758183_x_at) / RFU CNN1 (11734310_a_at) / Fold change /veh CNN1 (11734310_a_at) / RFU VPS37D (11726825_at) / Fold change /veh VPS37D (11726825_at) / RFU C10orf10 (11716522_x_at) / Fold change /veh C10orf10 (11716522_x_at) / RFU KIR2DL2 /// KIR2DL4 /// KIR2DL5A /// KIR2DL5B /// KIR2DS1 /// KIR2DS2 /// KIR2DS3 /// KIR2DS4 /// KIR3DL3 /// KIR3DL3 /// KIR3DS1 (11738374_at) / Fold change /veh KIR2DL2 /// KIR2DL4 /// KIR2DL5A /// KIR2DL5B /// KIR2DS1 /// KIR2DS2 /// KIR2DS3 /// KIR2DS4 /// KIR3DL3 /// KIR3DL3 /// KIR3DS1 (11738374_at) / RFU C1QL1 (11718748_at) / Fold change /veh C1QL1 (11718748_at) / RFU TMPRSS4 (11747572_a_at) / Fold change /veh TMPRSS4 (11747572_a_at) / RFU HAMP (11756126_x_at) / Fold change /veh HAMP (11756126_x_at) / RFU RNFT2 (11725882_a_at) / Fold change /veh RNFT2 (11725882_a_at) / RFU NR4A2 (11747474_a_at) / Fold change /veh NR4A2 (11747474_a_at) / RFU ABCC12 (11746883_a_at) / Fold change /veh ABCC12 (11746883_a_at) / RFU TMEM136 (11760407_x_at) / Fold change /veh TMEM136 (11760407_x_at) / RFU CLDN22 /// WWC2 (11732394_at) / Fold change /veh CLDN22 /// WWC2 (11732394_at) / RFU HLA-DPB1 (11760878_x_at) / Fold change /veh HLA-DPB1 (11760878_x_at) / RFU SPINT1 (11716480_a_at) / Fold change /veh SPINT1 (11716480_a_at) / RFU GAP43 (11754022_s_at) / Fold change /veh GAP43 (11754022_s_at) / RFU A4GNT (11735810_at) / Fold change /veh A4GNT (11735810_at) / RFU PRB3 (11715151_x_at) / Fold change /veh PRB3 (11715151_x_at) / RFU TUBB4B (11761932_at) / Fold change /veh TUBB4B (11761932_at) / RFU CAPN14 (11732068_a_at) / Fold change /veh CAPN14 (11732068_a_at) / RFU TMCC2 (11721928_a_at) / Fold change /veh TMCC2 (11721928_a_at) / RFU IRGQ (11745062_a_at) / Fold change /veh IRGQ (11745062_a_at) / RFU FAM174B (11720279_a_at) / Fold change /veh FAM174B (11720279_a_at) / RFU TMPRSS4 (11748680_a_at) / Fold change /veh TMPRSS4 (11748680_a_at) / RFU FAM212B (11763350_a_at) / Fold change /veh FAM212B (11763350_a_at) / RFU PLEKHG5 (11743358_a_at) / Fold change /veh PLEKHG5 (11743358_a_at) / RFU ZSCAN30 (11745921_a_at) / Fold change /veh ZSCAN30 (11745921_a_at) / RFU CMKLR1 (11741424_a_at) / Fold change /veh CMKLR1 (11741424_a_at) / RFU LOC101060620 /// MAPK8IP1 (11723275_at) / Fold change /veh LOC101060620 /// MAPK8IP1 (11723275_at) / RFU SPTSSB (11747773_x_at) / Fold change /veh SPTSSB (11747773_x_at) / RFU PRSS12 (11739890_at) / Fold change /veh PRSS12 (11739890_at) / RFU BIN1 (11741810_x_at) / Fold change /veh BIN1 (11741810_x_at) / RFU WNT11 (11732464_a_at) / Fold change /veh WNT11 (11732464_a_at) / RFU C10orf10 (11716521_a_at) / Fold change /veh C10orf10 (11716521_a_at) / RFU C5orf56 (11738089_at) / Fold change /veh C5orf56 (11738089_at) / RFU CYB561 (11721691_x_at) / Fold change /veh CYB561 (11721691_x_at) / RFU ANKRD19P (11752326_a_at) / Fold change /veh ANKRD19P (11752326_a_at) / RFU OR2T12 /// OR2T33 /// OR2T8 (11738714_s_at) / Fold change /veh OR2T12 /// OR2T33 /// OR2T8 (11738714_s_at) / RFU VCAN (11748164_a_at) / Fold change /veh VCAN (11748164_a_at) / RFU JSRP1 (11732532_at) / Fold change /veh JSRP1 (11732532_at) / RFU KRTAP10-11 (11738290_x_at) / Fold change /veh KRTAP10-11 (11738290_x_at) / RFU MYO3A (11730013_a_at) / Fold change /veh MYO3A (11730013_a_at) / RFU EBF3 (11725865_a_at) / Fold change /veh EBF3 (11725865_a_at) / RFU CAMK2N1 (11719241_x_at) / Fold change /veh CAMK2N1 (11719241_x_at) / RFU C5orf56 (11738088_a_at) / Fold change /veh C5orf56 (11738088_a_at) / RFU OLFML3 (11715873_a_at) / Fold change /veh OLFML3 (11715873_a_at) / RFU LOC100653217 /// NTM (11731650_a_at) / Fold change /veh LOC100653217 /// NTM (11731650_a_at) / RFU MAPK11 (11762145_a_at) / Fold change /veh MAPK11 (11762145_a_at) / RFU FIZ1 (11724087_x_at) / Fold change /veh FIZ1 (11724087_x_at) / RFU OASL (11726364_x_at) / Fold change /veh OASL (11726364_x_at) / RFU SOX15 (11748057_x_at) / Fold change /veh SOX15 (11748057_x_at) / RFU CD79A (11719716_a_at) / Fold change /veh CD79A (11719716_a_at) / RFU HIST1H1D (11736915_at) / Fold change /veh HIST1H1D (11736915_at) / RFU CASKIN2 (11723855_a_at) / Fold change /veh CASKIN2 (11723855_a_at) / RFU LOC730098 (11760151_x_at) / Fold change /veh LOC730098 (11760151_x_at) / RFU OR4N2 (11742367_at) / Fold change /veh OR4N2 (11742367_at) / RFU PRRT2 (11749266_a_at) / Fold change /veh PRRT2 (11749266_a_at) / RFU SNX32 (11753110_a_at) / Fold change /veh SNX32 (11753110_a_at) / RFU CDHR5 (11726645_a_at) / Fold change /veh CDHR5 (11726645_a_at) / RFU RCAN1 (11760418_a_at) / Fold change /veh RCAN1 (11760418_a_at) / RFU FAM167A (11723789_a_at) / Fold change /veh FAM167A (11723789_a_at) / RFU FAM26E (11764081_at) / Fold change /veh FAM26E (11764081_at) / RFU ISYNA1 (11749810_s_at) / Fold change /veh ISYNA1 (11749810_s_at) / RFU ACY1 (11761880_at) / Fold change /veh ACY1 (11761880_at) / RFU 11764098_at / Fold change /veh 11764098_at / RFU SAMD14 (11745864_x_at) / Fold change /veh SAMD14 (11745864_x_at) / RFU NPB (11741838_a_at) / Fold change /veh NPB (11741838_a_at) / RFU TMPRSS6 (11731388_a_at) / Fold change /veh TMPRSS6 (11731388_a_at) / RFU KRTAP10-2 (11738614_at) / Fold change /veh KRTAP10-2 (11738614_at) / RFU ARHGAP8 /// PRR5-ARHGAP8 (11727945_x_at) / Fold change /veh ARHGAP8 /// PRR5-ARHGAP8 (11727945_x_at) / RFU KRTAP5-7 /// NADSYN1 (11734609_at) / Fold change /veh KRTAP5-7 /// NADSYN1 (11734609_at) / RFU RASL12 (11751679_a_at) / Fold change /veh RASL12 (11751679_a_at) / RFU CDKN2B (11736163_a_at) / Fold change /veh CDKN2B (11736163_a_at) / RFU PRF1 (11729649_at) / Fold change /veh PRF1 (11729649_at) / RFU, ZNF638 /// ZNF638-IT1 / Fold change vs veh, ZNF638 /// ZNF638-IT1 / RFU, PANK3 / Fold change vs veh, PANK3 / RFU, SH3YL1 / Fold change vs veh, SH3YL1 / RFU, ZEB2 / Fold change vs veh, ZEB2 / RFU, NRIP1 / Fold change vs veh, NRIP1 / RFU, PTTG1IP / Fold change vs veh, PTTG1IP / RFU, CAPN2 / Fold change vs veh, CAPN2 / RFU, MED14 / Fold change vs veh, MED14 / RFU, SNORA58 / Fold change vs veh, SNORA58 / RFU, C1orf63 / Fold change vs veh, C1orf63 / RFU, LRRFIP1 / Fold change vs veh, LRRFIP1 / RFU, NDUFAF7 / Fold change vs veh, NDUFAF7 / RFU, SLC12A2 / Fold change vs veh, SLC12A2 / RFU, IBTK / Fold change vs veh, IBTK / RFU, ESF1 / Fold change vs veh, ESF1 / Fold change vs veh, TMEM50B / RFU, TAOK1 / Fold change vs veh, TAOK1 / RFU, ACBD3 / Fold change vs veh, ACBD3 / RFU, TMA16 / Fold change vs veh, TMA16 / RFU, RWDD3 / Fold change vs veh, RWDD3 / RFU, BCAT1 / Fold change vs veh, BCAT1 / RFU, EDEM3 / Fold change vs veh, EDEM3 / RFU, TMEM33 / Fold change vs veh, TMEM33 / RFU, WDR75 / Fold change vs veh, WDR75 / RFU, AHCTF1 / Fold change vs veh, AHCTF1 / RFU, TFRC / Fold change vs veh, TFRC / RFU, ZDHHC17 / Fold change vs veh, ZDHHC17 / RFU, NOM1 / Fold change vs veh, NOM1 / RFU, ARL8B / Fold change vs veh, ARL8B / RFU, ZBTB11 / Fold change vs veh, ZBTB11 / RFU, TAMM41 / Fold change vs veh, TAMM41 / RFU, KIAA1704 /// LOC100996395 / Fold change vs veh, KIAA1704 /// LOC100996395 / RFU, ING1 / Fold change vs veh, ING1 / RFU, TRMT61B / Fold change vs veh, TRMT61B / RFU, FUBP3 / Fold change vs veh, FUBP3 / RFU, TP53 / Fold change vs veh, TP53 / RFU, TNKS2 / Fold change vs veh, TNKS2 / RFU, ZFP14 / Fold change vs veh, ZFP14 / RFU, ACTR2 / Fold change vs veh, ACTR2 / RFU, PPP3R1 / Fold change vs veh, PPP3R1 / RFU, PIK3R1 / Fold change vs veh, PIK3R1 / RFU, HNRNPA1 / Fold change vs veh, HNRNPA1 / RFU, RNF170 / Fold change vs veh, RNF170 / RFU, ZNF28 / Fold change vs veh, ZNF28 / RFU, RNGTT / Fold change vs veh, RNGTT / RFU, OGT / Fold change vs veh, OGT / RFU, BRD1 / Fold change vs veh, BRD1 / RFU, MARS / Fold change vs veh, MARS / RFU, ZNF655 / Fold change vs veh, ZNF655 / RFU, FAHD1 / Fold change vs veh, FAHD1 / RFU, BDP1 / Fold change vs veh, BDP1 / RFU, LRRCC1 / Fold change vs veh, LRRCC1 / RFU, ARID1A / Fold change vs veh, ARID1A / RFU, ZNF146 / Fold change vs veh, ZNF146 / RFU, ZNF330 / Fold change vs veh, ZNF330 / RFU, GPN3 / Fold change vs veh, GPN3 / RFU, C9orf123 / Fold change vs veh, C9orf123 / RFU, N4BP2L2 / Fold change vs veh, N4BP2L2 / RFU, ARFIP1 / Fold change vs veh, ARFIP1 / RFU, FAM179B / Fold change vs veh, FAM179B / RFU, BCL10 / Fold change vs veh, BCL10 / RFU, UHRF1BP1L / Fold change vs veh, UHRF1BP1L / RFU, BET1 / Fold change vs veh, BET1 / RFU, CNOT2 / Fold change vs veh, CNOT2 / RFU, ZNF268 / Fold change vs veh, ZNF268 / Fold change vs veh, ZNF507 / RFU, DGCR2 / Fold change vs veh, DGCR2 / RFU, WDSUB1 / Fold change vs veh, WDSUB1 / Fold change vs veh, HSP90B1 /// MIR3652 / RFU, ADSS / Fold change vs veh, ADSS / RFU, GK / Fold change vs veh, GK / RFU, ZNF148 / Fold change vs veh, ZNF148 / RFU, TAF9 / Fold change vs veh, TAF9 / RFU, SLC1A5 / Fold change vs veh, SLC1A5 / RFU, SLMO2 / Fold change vs veh, SLMO2 / RFU, ABCC4 / Fold change vs veh, ABCC4 / RFU, LOC101060439 /// RAP1B / Fold change vs veh, LOC101060439 /// RAP1B / RFU, RFX7 / Fold change vs veh, RFX7 / RFU, GTPBP10 / Fold change vs veh, GTPBP10 / RFU, CNEP1R1 / Fold change vs veh, CNEP1R1 / RFU, BIVM-ERCC5 /// ERCC5 / Fold change vs veh, BIVM-ERCC5 /// ERCC5 / RFU, ILF3 / Fold change vs veh, ILF3 / RFU 11762660_at / Fold change /veh 11762660_at / RFU VCAN (11757783_s_at) / Fold change /veh VCAN (11757783_s_at) / RFU DDX43 (11728927_at) / Fold change /veh DDX43 (11728927_at) / RFU KRT8 (11758188_x_at) / Fold change /veh KRT8 (11758188_x_at) / RFU NKD1 (11759106_at) / Fold change /veh NKD1 (11759106_at) / RFU SRD5A1 (11742802_a_at) / Fold change /veh SRD5A1 (11742802_a_at) / RFU TPSAB1 /// TPSB2 (11721975_s_at) / Fold change /veh TPSAB1 /// TPSB2 (11721975_s_at) / RFU GSTM3 (11746129_a_at) / Fold change /veh GSTM3 (11746129_a_at) / RFU IL23R (11737362_x_at) / Fold change /veh IL23R (11737362_x_at) / RFU TMEM51 (11727254_a_at) / Fold change /veh TMEM51 (11727254_a_at) / RFU PIWIL2 (11732686_x_at) / Fold change /veh PIWIL2 (11732686_x_at) / RFU ORM1 (11744905_x_at) / Fold change /veh ORM1 (11744905_x_at) / RFU CCDC152 (11743942_at) / Fold change /veh CCDC152 (11743942_at) / RFU ECM1 (11717891_a_at) / Fold change /veh ECM1 (11717891_a_at) / RFU IL23R (11748794_a_at) / Fold change /veh IL23R (11748794_a_at) / RFU TNFAIP8L3 (11732012_x_at) / Fold change /veh TNFAIP8L3 (11732012_x_at) / RFU MBOAT4 (11741988_at) / Fold change /veh MBOAT4 (11741988_at) / RFU 11764193_at / Fold change /veh 11764193_at / RFU TMEM53 (11763286_at) / Fold change /veh TMEM53 (11763286_at) / RFU MAGEB2 (11727129_at) / Fold change /veh MAGEB2 (11727129_at) / RFU TMEM200A (11744735_a_at) / Fold change /veh TMEM200A (11744735_a_at) / RFU CCDC152 (11751479_a_at) / Fold change /veh CCDC152 (11751479_a_at) / RFU FAM211A (11726209_a_at) / Fold change /veh FAM211A (11726209_a_at) / RFU RGS16 (11746705_a_at) / Fold change /veh RGS16 (11746705_a_at) / RFU VCAN (11755009_s_at) / Fold change /veh VCAN (11755009_s_at) / RFU RHOB (11743442_s_at) / Fold change /veh RHOB (11743442_s_at) / RFU RGS16 (11720943_a_at) / Fold change /veh RGS16 (11720943_a_at) / RFU RGS16 (11720944_at) / Fold change /veh RGS16 (11720944_at) / RFU, VPS4B / Fold change vs veh, VPS4B / RFU, CREB1 / Fold change vs veh, CREB1 / RFU, DNAJC13 / Fold change vs veh, DNAJC13 / RFU, GNAQ / Fold change vs veh, GNAQ / RFU, CDK5R1 / Fold change vs veh, CDK5R1 / RFU, ZRANB3 / Fold change vs veh, ZRANB3 / RFU, CUL4A / Fold change vs veh, CUL4A / RFU, CCNY / Fold change vs veh, CCNY / RFU, UFL1 / Fold change vs veh, UFL1 / RFU, COG3 / Fold change vs veh, COG3 / RFU, DIAPH2 / Fold change vs veh, DIAPH2 / RFU, SKA2 / Fold change vs veh, SKA2 / RFU, AFF3 / Fold change vs veh, AFF3 / RFU, LMF1 / Fold change vs veh, LMF1 / RFU, IPO11 / Fold change vs veh, IPO11 / RFU, DFFB / Fold change vs veh, DFFB / RFU, FOXP1 / Fold change vs veh, FOXP1 / RFU, CARD8 / Fold change vs veh, CARD8 / RFU, STRN3 / Fold change vs veh, STRN3 / RFU, ADK / Fold change vs veh, ADK / RFU, RASSF2 / Fold change vs veh, RASSF2 / RFU, WIPF1 / Fold change vs veh, WIPF1 / RFU, LARP1B / Fold change vs veh, LARP1B / RFU, RASA1 / Fold change vs veh, RASA1 / RFU, RB1 / Fold change vs veh, RB1 / RFU, PPFIA1 / Fold change vs veh, PPFIA1 / RFU, MAT2A / Fold change vs veh, MAT2A / RFU, CCT5 / Fold change vs veh, CCT5 / RFU, WDR92 / Fold change vs veh, WDR92 / RFU, CUX1 / Fold change vs veh, CUX1 / RFU, TTC7A / Fold change vs veh, TTC7A / RFU, TMEM135 / Fold change vs veh, TMEM135 / RFU, DEPTOR / Fold change vs veh, DEPTOR / RFU, CPM / Fold change vs veh, CPM / RFU, DNAJB6 / Fold change vs veh, DNAJB6 / RFU, CACNA2D3 / Fold change vs veh, CACNA2D3 / RFU, DTX4 / Fold change vs veh, DTX4 / RFU, TFCP2 / Fold change vs veh, TFCP2 / RFU, GMCL1 /// GMCL1P1 / Fold change vs veh, GMCL1 /// GMCL1P1 / RFU, AEBP2 / Fold change vs veh, AEBP2 / RFU, SNHG1 /// SNORD22 /// SNORD25 /// SNORD26 /// SNORD27 /// SNORD28 /// SNORD29 /// SNORD31 / Fold change vs veh, SNHG1 /// SNORD22 /// SNORD25 /// SNORD26 /// SNORD27 /// SNORD28 /// SNORD29 /// SNORD31 / Fold change (Aza/veh), C12orf56 (ProbeSet 11735607_a_at) / Fold change (ACY-1035/veh), C12orf56 (ProbeSet 11735607_a_at) / Fold change (Aza/veh), FGFR1OP (ProbeSet 11751329_s_at) / Fold change (ACY-1035/veh), FGFR1OP (ProbeSet 11751329_s_at) / Fold change (Aza/veh), VPS36 (ProbeSet 11739960_a_at) / Fold change (ACY-1035/veh), VPS36 (ProbeSet 11739960_a_at) / RFU SYPL1 (11715823_x_at) / Fold change /veh SYPL1 (11715823_x_at) / RFU IGFBP7 (11715501_s_at) / Fold change /veh IGFBP7 (11715501_s_at) / RFU REEP3 (11722064_at) / Fold change /veh REEP3 (11722064_at) / RFU IGLL1 (11728026_x_at) / Fold change /veh IGLL1 (11728026_x_at): dose or concentration left out as unconfirmed
Settings: MV-4-11 cells, 48 hours

## Nc1ncn([C@@H]2O[C@H](CO)[C@@H](O)[C@H]2O)c(=O)n1 [azacitidine]
  Fold change /veh PRSS12 (11739890_at): 0.94
